As usually defined, the IC50 is the concentration at which inhibition is half-maximal. Lower therefore signals inhibition by little substance.

The structures appear in SMILES notation.

For the test, the target named is T1, hCRTH2 receptor (Homo sapiens, UniProt Q9Y5Y4).
T1 construct: expressed in transfected cells; host or cells: HEK293
T1 sequence (Q9Y5Y4 1-395): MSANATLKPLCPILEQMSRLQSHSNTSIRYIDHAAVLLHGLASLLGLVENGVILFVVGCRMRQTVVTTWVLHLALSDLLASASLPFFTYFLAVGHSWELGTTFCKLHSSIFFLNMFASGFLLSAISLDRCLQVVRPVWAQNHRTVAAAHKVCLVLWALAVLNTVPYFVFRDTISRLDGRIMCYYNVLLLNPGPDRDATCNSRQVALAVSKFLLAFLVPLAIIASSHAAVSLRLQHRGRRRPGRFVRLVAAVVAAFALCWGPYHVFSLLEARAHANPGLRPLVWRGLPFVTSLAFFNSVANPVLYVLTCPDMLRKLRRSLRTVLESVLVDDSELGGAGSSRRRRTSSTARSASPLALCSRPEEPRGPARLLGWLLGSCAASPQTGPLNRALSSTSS
Kind of test: Radioligand displacement assay (3H-PGD2) on hCRTH2 receptor membranes. The test is classed as binding. As to conditions: antagonistic activity, 3H-PGD2 radioligand displacement, HEK293-hCRTH2 membranes. In general terms: Displacement assays read how much labelled ligand stays bound in the presence of the test substance.
`Cc1ccc([C@@H]2C[C@H]2C(=O)N2CCc3ccccc3C2c2cc(Cl)ccc2OCC(=O)O)cc1` (mixture of isomers) [Example 420] displayed an IC50 of 103 nM.

In turn, `O=C(O)COc1ccc(Cl)cc1C1c2ccccc2CCN1C(=O)[C@@H]1C[C@H]1c1cccc(Cl)c1` (mixture of isomers) [Example 421] came in with an IC50 of 24 nM.

Take `Cc1ccccc1[C@@H]1C[C@H]1C(=O)N1CCc2ccccc2C1c1cc(Cl)ccc1OCC(=O)O` (mixture of isomers) [Example 422]: the half-maximal inhibitory concentration (IC50) came out at 5.58 nM.

In the case of `O=C(O)COc1ccc(Cl)cc1C1c2ccccc2CCN1C(=O)[C@@H]1C[C@H]1c1ccccc1C(F)(F)F` (mixture of isomers) [Example 423], the IC50 worked out at 6.62 nM.

Take `O=C(O)COc1ccc(Cl)cc1C1c2ccccc2CCN1C(=O)[C@@H]1C[C@H]1c1cccc(F)c1` (mixture of isomers) [Example 424]: the IC50 was 12 nM.

`COc1cccc([C@@H]2C[C@H]2C(=O)N2CCc3ccccc3C2c2cc(Cl)ccc2OCC(=O)O)c1` (mixture of isomers) [Example 425] returned an IC50 of 30.6 nM.

For `O=C(O)COc1ccc(Cl)cc1C1c2ccccc2CCN1C(=O)[C@@H]1C[C@H]1c1cccc(C(F)(F)F)c1` (mixture of isomers) [Example 426], the concentration for half-maximal inhibition (IC50) is 93.8 nM.

With `Cc1cccc([C@@H]2C[C@H]2C(=O)N2CCc3ccccc3C2c2cc(Cl)ccc2OCC(=O)O)c1` (mixture of isomers) [Example 427], the IC50 is 46.6 nM.

`O=C(O)COc1ccc(Cl)cc1C1c2ccc(F)cc2CCN1C(=O)[C@@H]1C[C@H]1c1ccccc1` (mixture of isomers) [Example 428] gave an IC50 of 1.33 nM.

Consider `O=C(O)COc1ccc(Cl)cc1C1c2ccc(F)cc2CCN1C(=O)[C@@H]1C[C@H]1c1ccccc1C(F)(F)F` (mixture of isomers) [Example 429], for which the IC50 was 2.21 nM.

As to `Cc1ccccc1[C@@H]1C[C@H]1C(=O)N1CCc2cc(F)ccc2C1c1cc(Cl)ccc1OCC(=O)O` (mixture of isomers) [Example 431], the IC50 was determined as 3.56 nM.

In the case of `Cc1ccc(OCC(=O)N2CCc3cc(F)ccc3C2c2cc(Cl)ccc2OCC(=O)O)c(C)n1` (racemic) [Example 432], the IC50 was found to be 40.6 nM.

For the compound `COc1ccc2[nH]cc(CCC(=O)N3CCc4cc(F)ccc4C3c3cc(Cl)ccc3OCC(=O)O)c2c1` (racemic) [Example 433], the IC50 was found to be 90.1 nM.

Consider `Cn1cc(CCC(=O)N2CCc3cc(F)ccc3C2c2cc(Cl)ccc2OCC(=O)O)c2ccccc21` (racemic) [Example 434], for which the IC50 came out at 33.3 nM.

In the case of `Cc1ccccc1CCC(=O)N1CCc2cc(F)ccc2C1c1cc(Cl)ccc1OCC(=O)O` (racemic) [Example 435], the IC50 worked out at 46.5 nM.

Regarding `O=C(O)COc1ccc(Cl)cc1C1c2ccc(F)cc2CCN1C(=O)CCCc1ccccc1F` (racemic) [Example 436], the IC50 was determined as 5.73 nM.

In turn, `O=C(O)COc1ccc(Cl)cc1C1c2ccc(F)cc2CCN1C(=O)COCc1ccccc1Cl` (racemic) [Example 437] showed an IC50 of 5.23 nM.

Turning to `O=C(O)COc1ccc(Cl)cc1C1c2ccc(F)cc2CCN1C(=O)CCOc1ccc(F)cc1` (racemic) [Example 438], the IC50 was found to be 91.1 nM.

`CN(CC(=O)N1CCc2ccccc2C1c1cc(Cl)ccc1OCC(=O)O)c1ccccc1` (racemic) [Example 439]: the IC50 amounted to 379 nM.

As to `O=C(O)COc1ccc(Cl)cc1C1c2ccccc2CCN1C(=O)CCCN1CCCC1=O` (racemic) [Example 440], the IC50 worked out at 55.7 nM.

In turn, `O=C(O)COc1ccc(Cl)cc1C1c2ccccc2CCN1C(=O)CCN1CCc2ccccc21` (racemic) [Example 441] showed an IC50 of 12.7 nM.

Take `O=C(O)COc1ccc(Cl)cc1C1c2ccccc2CCN1C(=O)CCN1C(=O)COc2ccc(Cl)cc21` (racemic) [Example 442]: the IC50 amounted to 347 nM.

Consider `O=C(O)COc1ccc(Cl)cc1C1c2ccccc2CCN1C(=O)CNc1ccccc1` (racemic) [Example 443], for which the IC50 was determined as 855 nM.

On to `O=C(O)COc1ccc(Cl)cc1C1c2ccccc2CCN1C(=O)CN1Cc2ccccc2C1` (racemic) [Example 444], for which the IC50 was 667 nM.

As to `O=C(O)COc1ccc(Cl)cc1C1c2ccccc2CCN1C(=O)CCN1Cc2ccccc2C1=O` (racemic) [Example 445], the IC50 worked out at 130 nM.

The values are drawn from US8575158B2, “1-phenyl-substituted heterocyclyl derivatives and their use as prostaglandin D2 receptor modulators” (Actelion Pharmaceuticals Ltd., priority 2010, dated 2013).
